In patent US20120128670A1, “mTOR INHIBITOR AND ANGIOGENESIS INHIBITOR COMBINATION THERAPY” (OSI PHARMACEUTICALS, LLC, priority 2009, published 2012):
Where two headings read alike, the source gives them in different places.

Tests used:
[1] = tested on: SKOV3 ovarian carcinoma xenografts; test: Study No. 5: tumor growth inhibition in SKOV3 ovarian carcinoma xenografts; conditions: single agent
Method: With respect to study No. 5, female athymic nude nu/nu mice (11-12 wks, 20-27 g, Harlan) were allowed to acclimate for a minimum of one week prior to initiation of the study. To evaluate tumor growth inhibition, SKOV3 tumor fragments were implanted s.c. in the right flank of nude mice. Tumors were established to mean tumor volume per treatment group of 84.6 mm^3-85.3 mm^3 of 8 mice each.
(§1) Body weights were determined twice weekly along with tumor volume (V=[length×(width)]/2) measurements using Vernier calipers. Tumor growth inhibition was determined at different time points by the following formula:
(§2) where Tt=median tumor volume of treated at time t; T0=median tumor volume of treated at time 0; Ct=median tumor volume of control at time t; and C0=median tumor volume of control at time 0. The average TGI over the dosing period was then calculated and reported.
(§3) Tumor regressions were determined and calculated as follows using the formula: % Regression=100(T0−Ti)/T0; where T0 is the mean tumor volume for treated group at the initiation of treatment and Ti is the mean tumor volume for that group at time x.

[2] = tested on: OVCAR-5 ovarian carcinoma xenografts; test: Study No. 4: tumor growth inhibition in OVCAR-5 ovarian carcinoma xenografts; conditions: OVCAR-5 xenografts, 14 days, single agent
From the text: (§4) Regarding study Nos. 3 and 4, female athymic nude nu/nu CD-1 mice (6-8 wks, 20-29 g, Charles River Laboratories, Wilmington, Mass., USA) were allowed to acclimate for a minimum of one week prior to initiation of the study. To evaluate tumor growth inhibition, cells were harvested from cell culture flasks during exponential cell growth, washed twice with sterile PBS, counted and resuspended in PBS to a suitable concentration before s.c. implantation on the right flank of nu/nu CD-1 mice. Tumors were established to 200±50 mm^3 in size before randomization into treatment groups of 8 mice each.
(§5) All of the Tumor Growth Inhibition (TGI) studies were performed using 20% Trappsol as the vehicle with once-daily oral administration of OSI-027 for 14 or 28 consecutive days. Body weights were determined twice weekly along with tumor volume (V=[length×(width)]/2) measurements using Vernier calipers. Tumor growth inhibition was determined at different time points by the following formula:
as §2, §3

[3] = tested on: H292 lung carcinoma xenografts; test: Study No. 3: tumor growth inhibition in H292 lung carcinoma xenografts; conditions: 21 days, single agent
From the text: as §4, §5, §2, §3

[4] = tested on: DU145 prostate carcinoma xenografts; conditions: for % Reg. / Morbidity (Mortality) / Avg. TGI: DU145 xenografts
Method: (§6) With respect to study Nos. 1 and 2, male athymic nude nu/nu mice (6-8 wks, 25-32 g, Harlan) were allowed to acclimate for a minimum of one week prior to initiation of the study. To evaluate tumor growth inhibition, DU145 tumor fragments were implanted s.c. in the right flank of nude mice. Tumors were established to 200±50 mm^3 in size before randomization into treatment groups of 8 mice each.
as §5, §2, §3

[5] = tested on: DU145 prostate carcinoma xenografts; test: Study No. 2: tumor growth inhibition in DU145 prostate carcinoma xenografts, extended dosing for 28 days; format: in vivo
Method: as §6, §1, §2, §3

[6] = OSI-027 50 mg/kg qd oral, 14 days
[7] = OSI-027 50 mg/kg qd oral, 14 days, 50 mg/kg
[8] = OSI-027 50 mg/kg qd oral, 50 mg/kg
[9] = OSI-027 50 mg/kg qd oral, 14 days, single agent
[10] = OSI-027 50 mg/kg qd oral, 28 days, single agent
[11] = OSI-027 65 mg/kg qd oral, 28 days, single agent
[12] = Sutent 40 mg/kg qd, listed as Sunitinib
[13] = Avastin 4 mg/kg q4d (table; text 5 mg/kg q4d×4)
[14] = Avastin 4 mg/kg q4d (table; text 5 mg/kg q4d×4), listed as Bevacizumab
[15] = Avastin 4 mg/kg q4d×4, single agent
[16] = Avastin 4 mg/kg q4d×8, single agent

**Q.** What does the source list for `COc1cccc2cc(-c3nc([C@H]4CC[C@H](C(=O)O)CC4)n4ncnc(N)c34)[nH]c12` [OSI-027, (1R,4R)-4-(4-amino-5-(7-methoxy-1H-indol-2-yl)imidazo[1,5-f][1,2,4]triazin-7-yl)cyclohexanecarboxylic acid]?
**A.** BWL [1, 6]: 2%; Morbidity (Mortality) [1, 6]: 0/8; % Reg. [1, 7]: 4%; Avg. TGI [1, 7]: 86%; BWL ([2]; OSI-027 50 mg/kg qd oral): 0%; Morbidity (Mortality) ([2]; OSI-027 50 mg/kg qd oral): 0/8; % Reg. [2, 8]: 6%; Avg. TGI [2, 8]: 78%; BWL ([3]; OSI-027 50 mg/kg qd oral): 0%; Morbidity (Mortality) ([3]; OSI-027 50 mg/kg qd oral): 0/8; % Reg. [3, 8]: 8%; Avg. TGI [3, 8]: 83%; % Reg. [4, 9]: 0%; Morbidity (Mortality) [4, 9]: 0/8; Avg. TGI ([4]; OSI-027 50 mg/kg qd oral, 14 days, single agent, 50 mg/kg): 21%; BWL ([4]; mouse, in vivo, po, 50 mg/kg): 6%; % Reg. [5, 10]: 0%; BWL [5, 10]: 14%; Morbidity (Mortality) [5, 10]: 0/8; Avg. TGI ([5]; OSI-027 50 mg/kg qd oral, 28 days, single agent, 50 mg/kg): 40%; % Reg. [5, 11]: 0%; BWL [5, 11]: 17%; Morbidity (Mortality) [5, 11]: 0/8; Avg. TGI ([5]; OSI-027 65 mg/kg qd oral, 28 days, single agent, 65 mg/kg): 58%

**Q.** How did the “% Reg.” value ([2]; Sutent 40 mg/kg qd) turn out when `CCN(CC)CCNC(=O)c1c(C)[nH]c(/C=C2\C(=O)Nc3ccc(F)cc32)c1C` [Sutent, sunitinib, reference compound] was run?
**A.** 0%

**Q.** And the “Avg. TGI” value ([2]; Sutent 40 mg/kg qd)?
**A.** 71%

**Q.** What about the “Morbidity (Mortality)” value ([2]; Sutent 40 mg/kg qd) of the same molecule?
**A.** 0/8

**Q.** And the “Avg. TGI” value [2, 12]?
**A.** 71%

**Q.** And the “% Reg.” value ([3]; Sutent 40 mg/kg qd)?
**A.** 0%

**Q.** What about the “Avg. TGI” value ([3]; Sutent 40 mg/kg qd) of the same molecule?
**A.** 55%

**Q.** What about the “Morbidity (Mortality)” value ([3]; Sutent 40 mg/kg qd) of the same molecule?
**A.** 0/8

**Q.** And the “Avg. TGI” value [3, 12]?
**A.** 55%

**Q.** “bevacizumab [Avastin, reference compound]” was tested. Which “% Reg.” value [1, 13] did it give?
**A.** 0%

**Q.** What about the “Avg. TGI” value [1, 13] of the same molecule?
**A.** 67%

**Q.** And the “Morbidity (Mortality)” value [1, 13]?
**A.** 0/8

**Q.** And the “% Reg.” value [1, 14]?
**A.** 0%

**Q.** And the “Avg. TGI” value [1, 14]?
**A.** 67%

**Q.** And the “% Reg.” value [4, 15]?
**A.** 0%

**Q.** What about the “Avg. TGI” value [4, 15] of the same molecule?
**A.** 16%

**Q.** And the “Morbidity (Mortality)” value [4, 15]?
**A.** 0/8

**Q.** What about the “Avg. TGI” value ([4]; Avastin 4 mg/kg q4d×4, single agent, listed as Bevacizumab) of the same molecule?
**A.** 16%

**Q.** What about the “% Reg.” value [5, 16] of the same molecule?
**A.** 0%

**Q.** What about the “Avg. TGI” value [5, 16] of the same molecule?
**A.** 32%

**Q.** What about the “Morbidity (Mortality)” value [5, 16] of the same molecule?
**A.** 0/8

**Q.** And the “Avg. TGI” value ([5]; Avastin 4 mg/kg q4d×8, single agent, listed as Bevacizumab)?
**A.** 32%
